In patent publication US20240263146A1, “HUMAN NSCLC CELL LINES AND USES THEREOF” (SHANGHAI LIDE BIOTECH CO., LTD., priority 2020, published 2024):

Key:
Assay in all cases: cells
[1] = test system: LD1-0025-200636 (EGFR WT) cell line; details: Homo sapiens, 144 h
Procedure: (§1) The cell lines of the present disclosure (i.e., LD1-0025-200636; LD1-0025-200694; LD1-0006-215676; and LD1-0025-200717) were seeded at 2×10^2 cells/well to 96 well round bottom ultra low attachment plate. The drugs were added into the cell lines and the cells were cultured in 37° C. and 5% CO2 for 6 days. The ATP amount was measured using CellTiter-Glo. The Inhibition rate corresponding to the concentration of the drugs was calculated. The equation for calculating the inhibition rate is as follows: […]
(§2) Inhibition curve was graphed by XLfit(IDBS) and IC50 was calculated.

[2] = test system: LD1-0025-200717 (EGFR 19del, T790M & C797S mutant) cell line; details: Homo sapiens, LD1-0025-200717, 144 h
Procedure: as §1, §2

[3] = test system: LD1-0025-200694 (EGFR L858R) cell line; details: Homo sapiens, 144 h
Procedure: as §1, §2

[4] = test system: LD1-0006-215676 (EGFR L858R/T790M) cell line; details: Homo sapiens, 144 h
Procedure: as §1, §2

In the case of `C=CC(=O)Nc1cc(Nc2nccc(-c3cn(C)c4ccccc34)n2)c(OC)cc1N(C)CCN(C)C` [AZD9291, Osimertinib], the IC50 [1] is reported as 2.52 µM, the IC50 [2] is reported as 2.01 µM and the IC50 [3] is reported as 2.67 µM. It also gave an IC50 [4] of 0.03 µM.
